The values below come from patent US20120225862A1, “HETEROARYL BENZAMIDES, COMPOSITIONS AND METHODS OF USE” (AUCKLAND UNIVSERVICES LIMITED, priority 2009, published 2012).

The test system of experiment [1] is RCC4. In words: Necrotic cell death by trypan blue, RCC4. Format: cell-based, human. Conditions: 3 days, 5 μM, FIG. 2F. The method, then: (§1) For 2,3-bis[2-methoxy-4-nitro-5-sulfophenyl]-2H-tetrazolium-5-carboxanilide (XTT) assays, five thousand cells were plated in 96-well plates. The next day, vehicle (DMSO) or drug was added by serial dilution. Four days later, media were aspirated, XTT solution (0.3 mg/ml of XTT (Sigma), 2.65 mg/ml N-methyl dibenxopyrazine methyl sulfate (Simga) in phenol red-free media) was added, and the plates were incubated at 37° C. for 1-2 hours. Metabolism of XTT was quantified by measuring the absorbance at 450 nm. IC50s were calculated using linear interpolation. For clonogenic survival assays, three hundred cells were plated per 60 mm tissue culture dish. The cells were allowed to attach overnight and then treated with vehicle or drug for 14 days. Colonies were fixed and stained with crystal violet (0.1% crystal violet in 95% ethanol). All conditions were measured in triplicate and each experiment was done in duplicate or triplicate. To determine necrosis, cells were treated with drug for a given time point. Media and cells were collected, centrifugated, and resuspended in 0.4% trypan blue (Invitrogen). Live and dead cells were counted on a hematocytometer.

A further experiment relates to RCC4/VHL. The experiment in a line: Necrotic cell death by trypan blue, RCC4/VHL. Format: cell-based, human. Conditions: 3 days, 5 μM, FIG. 2F. The method, then: as §1
For experiment [2], the system named is RCC4. The experiment in a line: 3H-2-deoxyglucose uptake, RCC4. Format: cell-based, human. The method, then: One hundred thousand cells were plated into 6-well plates. The following day, the cells were treated with vehicle or drug and incubated for the indicated time. Cells were washed twice in phosphate buffered saline and low glucose media was added for 30 minutes. Cells were then incubated with 0.5 microCi of tritiated-2-deoxyglucose and incubated for an hour at 37° C. Cells were washed twice in PBS and then lysed in 0.2 N NaOH and 0.2% SDS. Lysates were transferred to scintillation tubes with scintillation fluid and quantified by scintillation counter.
One hundred thousand cells were plated per well in a six-well plate. The next day, cells were treated with the indicated concentration of drug and incubated for the indicated time. Cells were then washed twice with phosphate-buffered saline, incubated in low-glucose medium for 30 minutes, and ^3H-2-deoxyglucose (0.5 μCi) was added in 1 ml of glucose-free media for an additional hour. Cells were washed twice in PBS and lysed (0.2 N NaOH and 0.2% sodium dodecyl sulfate). Glucose uptake was quantified with a scintillation counter.

Experiment [3] deals with RCC4. The experiment in a line: ATP levels (bioluminescence), VHL-deficient cells. The experiment is classed as cell-based, human. The method, then:
(§2) All cells were grown in DMEM+10% FCS. ACHN and ACHN shVHL were a kind gift from George V. Thomas (UCLA). HIF overexpressing clones were described previously. Transfection of RNA oligos were performed with DnarmaFECT Reagent 1 (Dharmcon), according to manufacturer's directions. ON-TARGETplus SMART pools against HIF-1β/ARNT were purchased from Dharmacon. Glut1 was detected with anti-GLUT1 antibody from NeoMarkers/LabVision/Fisher. Pyruvate/lactate levels and hexokinase activity were both measured by fluorometric assay (BioVision and Sigma-Aldrich, respectively). ATP levels were measured by bioluminescence assay (ATP Determination Kit from Molecular Probes/Invitrogen). In vitro kinase activities were performed by Millipore KinaseProfiler. Affi-Gel 10 (BioRad) activated affinity media was coupled to analogs to generate immobilized affinity linkers.
We next investigated how a decrease in glycolysis could lead to selective necrotic cell death. One possibility is that the reduction in glycolysis lowers the availability of pyruvate, the essential precursor for the generation of acetyl-CoA. […] We therefore examined oxygen consumption as a marker of oxidative phosphorylation and ATP production in treated and untreated cells. […] However, the decrease in glucose uptake in response to treatment with compound 47 in VHL-deficient cells results in a 75% decrease in ATP levels (FIG. 3G). […]

In a further experiment the test system is 50 different kinases. The experiment in a line: In vitro kinase panel (Millipore KinaseProfiler), summary. Format: biochemical. The method, then:
as §2
(§3) We next wanted to investigate the differential glucose uptake between RCCs with and without VHL treated with compound 47 that subsequently lead to the selective death of VHL-deficient cells. We first examined the message levels of the two main glucose transporters, GLUT1 and GLUT2 by quantitative real-time PCR. GLUT1 is an inducible, high-affinity glucose transporter, while GLUT2 is the glucose transporter responsible for basal glucose uptake. […] Cells deficient in VHL had very low levels of GLUT2 that could barely be detected (FIG. 3J). […]

For another experiment, the target named is T1, CDK6/cyclinD3 (Homo sapiens, UniProt Q00534).
T1 construct: purchased Millipore (KinaseProfiler service)
T1 sequence (Q00534 whole entry, species assumed): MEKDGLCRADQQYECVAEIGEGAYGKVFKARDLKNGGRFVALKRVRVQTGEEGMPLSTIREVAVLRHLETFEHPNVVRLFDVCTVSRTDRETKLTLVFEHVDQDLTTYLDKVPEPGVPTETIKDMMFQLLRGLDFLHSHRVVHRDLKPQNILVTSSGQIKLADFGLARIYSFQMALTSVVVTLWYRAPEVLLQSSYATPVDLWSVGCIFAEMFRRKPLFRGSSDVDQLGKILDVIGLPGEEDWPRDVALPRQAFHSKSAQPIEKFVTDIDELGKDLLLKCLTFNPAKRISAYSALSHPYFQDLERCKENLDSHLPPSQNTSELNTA
T1 sequence (P30281 whole entry partner, species assumed): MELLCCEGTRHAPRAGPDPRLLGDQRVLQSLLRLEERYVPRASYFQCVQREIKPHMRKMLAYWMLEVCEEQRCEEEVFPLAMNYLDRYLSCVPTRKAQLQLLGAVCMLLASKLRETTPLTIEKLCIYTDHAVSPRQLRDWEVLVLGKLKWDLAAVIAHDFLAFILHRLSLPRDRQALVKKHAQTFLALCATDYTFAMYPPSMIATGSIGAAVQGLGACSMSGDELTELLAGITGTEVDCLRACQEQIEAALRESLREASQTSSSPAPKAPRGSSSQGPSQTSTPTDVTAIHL
In words: In vitro kinase activity (Millipore KinaseProfiler): CDK6/cyclinD3. The experiment is classed as biochemical. Particulars: no head or unit printed. The method, then:
as §2, §3

A further experiment deals with T2, CK1γ1 (Homo sapiens, UniProt Q9HCP0).
T2 construct: purchased Millipore (KinaseProfiler service)
T2 sequence (Q9HCP0 whole entry): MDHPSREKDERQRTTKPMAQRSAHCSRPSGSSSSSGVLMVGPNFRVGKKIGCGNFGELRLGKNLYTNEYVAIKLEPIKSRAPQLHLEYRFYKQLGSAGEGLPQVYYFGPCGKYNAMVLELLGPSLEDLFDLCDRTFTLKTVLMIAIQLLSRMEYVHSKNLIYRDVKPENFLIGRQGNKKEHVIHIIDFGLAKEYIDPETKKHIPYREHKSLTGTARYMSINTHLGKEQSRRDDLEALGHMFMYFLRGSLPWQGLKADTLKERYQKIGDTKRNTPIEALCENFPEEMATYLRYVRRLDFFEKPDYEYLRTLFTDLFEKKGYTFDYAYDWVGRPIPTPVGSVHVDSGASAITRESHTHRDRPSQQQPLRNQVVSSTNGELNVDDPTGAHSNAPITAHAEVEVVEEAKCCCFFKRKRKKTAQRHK
The experiment in a line: In vitro kinase activity (Millipore KinaseProfiler): CK1γ1. The experiment is classed as biochemical. Conditions: no head or unit printed. The method, then: as §2, §3

For the next experiment, the target named is T3, CSK (Homo sapiens, UniProt P41240).
T3 construct: purchased Millipore (KinaseProfiler service)
T3 sequence (P41240 whole entry, species assumed): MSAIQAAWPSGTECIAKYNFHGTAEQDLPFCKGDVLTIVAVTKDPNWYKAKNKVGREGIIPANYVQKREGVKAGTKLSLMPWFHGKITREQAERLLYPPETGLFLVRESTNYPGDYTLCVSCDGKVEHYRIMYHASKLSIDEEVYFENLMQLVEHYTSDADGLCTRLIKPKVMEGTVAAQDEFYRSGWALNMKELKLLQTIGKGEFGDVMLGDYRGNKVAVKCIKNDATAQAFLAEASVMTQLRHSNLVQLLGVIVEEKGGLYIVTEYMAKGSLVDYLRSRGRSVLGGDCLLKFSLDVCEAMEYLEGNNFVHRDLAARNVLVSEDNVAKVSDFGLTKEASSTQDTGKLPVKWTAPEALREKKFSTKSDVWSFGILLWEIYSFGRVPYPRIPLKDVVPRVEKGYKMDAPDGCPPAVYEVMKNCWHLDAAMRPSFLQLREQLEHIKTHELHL
The experiment in a line: In vitro kinase activity (Millipore KinaseProfiler): CSK. Particulars: no head or unit printed. Format: biochemical. The method, then:
as §2, §3

In a further experiment the target is T4, IGF-1R (Homo sapiens, UniProt P08069).
T4 construct: purchased Millipore (KinaseProfiler service)
T4 sequence (P08069 31-1367, species assumed): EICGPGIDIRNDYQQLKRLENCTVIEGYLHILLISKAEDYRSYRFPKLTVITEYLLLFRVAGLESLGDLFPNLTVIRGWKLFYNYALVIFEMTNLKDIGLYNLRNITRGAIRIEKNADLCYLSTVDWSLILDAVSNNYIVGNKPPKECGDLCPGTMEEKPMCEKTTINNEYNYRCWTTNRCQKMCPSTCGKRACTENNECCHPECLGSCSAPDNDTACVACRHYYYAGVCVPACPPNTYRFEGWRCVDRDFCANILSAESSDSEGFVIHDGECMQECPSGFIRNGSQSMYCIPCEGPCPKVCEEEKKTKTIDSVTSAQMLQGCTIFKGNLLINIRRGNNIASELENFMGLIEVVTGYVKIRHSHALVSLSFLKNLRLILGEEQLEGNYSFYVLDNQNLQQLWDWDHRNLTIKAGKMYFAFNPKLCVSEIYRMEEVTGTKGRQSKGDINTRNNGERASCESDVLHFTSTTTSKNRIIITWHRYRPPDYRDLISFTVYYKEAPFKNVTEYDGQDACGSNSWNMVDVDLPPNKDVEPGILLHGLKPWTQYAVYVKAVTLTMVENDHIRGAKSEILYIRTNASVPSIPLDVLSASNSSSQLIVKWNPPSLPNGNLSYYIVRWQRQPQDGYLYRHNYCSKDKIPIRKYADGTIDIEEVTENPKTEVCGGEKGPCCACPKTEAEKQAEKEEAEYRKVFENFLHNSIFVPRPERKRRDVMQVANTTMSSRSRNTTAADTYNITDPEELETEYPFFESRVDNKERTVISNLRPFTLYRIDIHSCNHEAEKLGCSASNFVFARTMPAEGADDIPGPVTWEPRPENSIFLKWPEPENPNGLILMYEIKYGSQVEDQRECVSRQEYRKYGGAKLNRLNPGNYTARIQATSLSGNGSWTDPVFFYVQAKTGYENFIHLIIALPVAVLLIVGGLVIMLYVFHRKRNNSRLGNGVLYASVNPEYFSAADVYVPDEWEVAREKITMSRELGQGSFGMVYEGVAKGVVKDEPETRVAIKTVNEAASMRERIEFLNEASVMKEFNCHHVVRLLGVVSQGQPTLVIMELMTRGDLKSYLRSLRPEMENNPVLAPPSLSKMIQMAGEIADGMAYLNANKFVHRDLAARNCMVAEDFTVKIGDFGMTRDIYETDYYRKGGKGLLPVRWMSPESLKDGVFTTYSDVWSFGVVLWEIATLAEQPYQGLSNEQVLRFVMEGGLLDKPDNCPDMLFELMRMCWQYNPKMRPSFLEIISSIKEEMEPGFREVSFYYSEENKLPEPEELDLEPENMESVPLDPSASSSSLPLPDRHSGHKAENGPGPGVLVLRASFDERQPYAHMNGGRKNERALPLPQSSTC
The experiment in a line: In vitro kinase activity (Millipore KinaseProfiler): IGF-1R. Particulars: no head or unit printed. The experiment is classed as biochemical. The method, then: as §2, §3

The target in a further experiment is T5, MAPKAP-K2 (Homo sapiens, UniProt P49137).
T5 construct: purchased Millipore (KinaseProfiler service)
T5 sequence (P49137 whole entry, species assumed): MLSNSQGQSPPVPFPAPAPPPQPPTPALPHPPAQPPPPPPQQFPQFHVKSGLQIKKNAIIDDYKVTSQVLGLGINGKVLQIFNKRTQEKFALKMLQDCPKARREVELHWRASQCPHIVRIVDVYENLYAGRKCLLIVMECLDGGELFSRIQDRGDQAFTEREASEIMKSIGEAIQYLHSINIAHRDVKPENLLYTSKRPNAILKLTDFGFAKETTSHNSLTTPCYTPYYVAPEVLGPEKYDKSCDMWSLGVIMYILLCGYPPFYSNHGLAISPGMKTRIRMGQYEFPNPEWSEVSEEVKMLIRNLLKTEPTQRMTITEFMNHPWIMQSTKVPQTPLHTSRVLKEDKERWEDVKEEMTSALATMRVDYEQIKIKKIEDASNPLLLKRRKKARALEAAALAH
In words: In vitro kinase activity (Millipore KinaseProfiler): MAPKAP-K2. The experiment is classed as biochemical. Particulars: no head or unit printed. The method, then: as §2, §3

The next experiment concerns the target T6, PDK1 (Homo sapiens, UniProt O15530).
T6 construct: purchased Millipore (KinaseProfiler service)
The experiment in a line: In vitro kinase activity (Millipore KinaseProfiler): PDK1. Conditions: no head or unit printed. Format: biochemical. The method, then: as §2, §3

Another experiment concerns the target T7, Pim-2 (Homo sapiens, UniProt Q9P1W9).
T7 construct: purchased Millipore (KinaseProfiler service)
The experiment in a line: In vitro kinase activity (Millipore KinaseProfiler): Pim-2. Format: biochemical. Particulars: no head or unit printed. The method, then:
as §2, §3

A further experiment has as its target T8, PKCδ (Homo sapiens, UniProt Q05655).
T8 construct: purchased Millipore (KinaseProfiler service)
The experiment in a line: In vitro kinase activity (Millipore KinaseProfiler): PKCδ. The experiment is classed as biochemical. Particulars: no head or unit printed. The method, then: as §2, §3

T6 sequence (O15530 whole entry): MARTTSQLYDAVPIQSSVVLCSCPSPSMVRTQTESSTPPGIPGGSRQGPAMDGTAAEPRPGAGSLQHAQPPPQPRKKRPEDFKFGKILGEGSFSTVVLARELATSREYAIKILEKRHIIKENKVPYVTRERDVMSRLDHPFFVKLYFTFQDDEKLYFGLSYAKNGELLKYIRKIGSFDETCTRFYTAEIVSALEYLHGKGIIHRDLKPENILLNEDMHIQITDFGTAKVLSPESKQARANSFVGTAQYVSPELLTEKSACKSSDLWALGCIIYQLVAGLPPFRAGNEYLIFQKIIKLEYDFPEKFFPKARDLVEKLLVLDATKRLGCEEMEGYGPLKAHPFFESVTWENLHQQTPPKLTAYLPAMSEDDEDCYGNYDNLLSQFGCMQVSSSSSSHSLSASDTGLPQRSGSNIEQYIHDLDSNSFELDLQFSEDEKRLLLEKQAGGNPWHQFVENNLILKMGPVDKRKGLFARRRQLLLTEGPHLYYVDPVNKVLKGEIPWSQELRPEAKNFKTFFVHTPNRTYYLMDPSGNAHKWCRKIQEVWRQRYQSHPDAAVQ
T7 sequence (Q9P1W9 whole entry, species assumed): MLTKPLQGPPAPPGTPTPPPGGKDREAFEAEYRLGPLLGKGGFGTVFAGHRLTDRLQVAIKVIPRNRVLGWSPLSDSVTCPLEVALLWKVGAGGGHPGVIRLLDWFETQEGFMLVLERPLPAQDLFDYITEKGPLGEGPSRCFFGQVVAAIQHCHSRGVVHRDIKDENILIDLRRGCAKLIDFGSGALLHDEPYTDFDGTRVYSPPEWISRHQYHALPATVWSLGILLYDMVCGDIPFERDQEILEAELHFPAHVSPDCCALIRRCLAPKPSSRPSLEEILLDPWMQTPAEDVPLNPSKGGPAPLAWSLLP
T8 sequence (Q05655 whole entry): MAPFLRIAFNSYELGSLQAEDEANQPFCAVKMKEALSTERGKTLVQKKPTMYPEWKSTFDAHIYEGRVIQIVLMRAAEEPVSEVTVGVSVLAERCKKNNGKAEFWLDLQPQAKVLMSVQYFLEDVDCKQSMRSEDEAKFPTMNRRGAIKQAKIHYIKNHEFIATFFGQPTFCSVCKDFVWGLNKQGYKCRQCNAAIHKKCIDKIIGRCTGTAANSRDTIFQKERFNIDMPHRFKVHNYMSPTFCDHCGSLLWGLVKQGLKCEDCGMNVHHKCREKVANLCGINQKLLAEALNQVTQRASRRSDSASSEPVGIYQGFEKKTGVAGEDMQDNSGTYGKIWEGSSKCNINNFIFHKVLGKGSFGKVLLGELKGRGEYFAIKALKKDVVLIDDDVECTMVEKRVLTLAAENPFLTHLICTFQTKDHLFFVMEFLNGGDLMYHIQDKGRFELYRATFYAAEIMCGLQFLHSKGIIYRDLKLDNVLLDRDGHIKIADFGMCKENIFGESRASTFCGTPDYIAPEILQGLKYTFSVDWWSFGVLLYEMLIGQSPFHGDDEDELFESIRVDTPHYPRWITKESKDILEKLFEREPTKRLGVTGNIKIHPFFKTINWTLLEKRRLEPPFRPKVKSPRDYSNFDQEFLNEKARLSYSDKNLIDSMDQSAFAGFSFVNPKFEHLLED

For `CC(C)(C)c1ccc(S(=O)(=O)NCc2ccc(C(=O)Nc3cccnc3)cc2)cc1` [Example 38, 4-((4-tert-Butylphenylsulfonamido)methyl)-N-(pyridin-3-yl)benzamide], in the experiment with RCC4 [1], the “RCC4 cells exhibiting necrotic cell death” value is reported as “greater than 80%”. In addition, the “necrotic cell death in RCC4/VHL” value with RCC4/VHL was “relatively insensitive”. Besides, in the experiment with RCC4 [2] (3H-2-deoxyglucose, two days of treatment, 5 μM), the “glucose uptake in VHL-deficient RCC4 cells” value is “impaired glucose uptake”. Also, in the experiment on RCC4 [2] (increasing concentrations, FIG. 3C), the “concentration dependence of glucose uptake inhibition in RCC4” value is “dose-dependent manner”. The “decrease in ATP levels in VHL-deficient cells” value with RCC4 [3] (5 μM, FIG. 3G) is reported as 75%. The “concentration dependence of inhibition of ATP production” value in the experiment on RCC4 [3] (FIG. 3H) was “dose-dependent”. For the same molecule, the “decrease in activity of 50 different kinases” value with 50 different kinases is “no significant decrease”. Besides, the CDK6/cyclinD3 kinase activity at CDK6/cyclinD3 came out at 105. Besides, the CK1γ1 kinase activity at CK1γ1 stood at 85%. The same molecule had a CSK kinase activity on CSK of 99. Further, on IGF-1R, the IGF-1R kinase activity worked out at 108. For the same molecule, the MAPKAP-K2 kinase activity at MAPKAP-K2 is 87. Further, at PDK1, the PDK1 kinase activity was 105%. On Pim-2, this molecule came in with a Pim-2 kinase activity of 112. Further, the PKCδ kinase activity at PKCδ is on record as 116.
